Measurements: a compilation of properties of binary mixtures (doi:10.1016/j.molliq.2008.06.014)

Test: xn = mol fraction of the nth substance listed
Conditions: 101 kPa

CCCC[n+]1ccn(C)c1.F[P-](F)(F)(F)(F)F + CN(C)CCO
x2 = 0
Conditions	electrical conductivity [S/m]	viscosity [mPa·s]
288.15 K	0.105	350
293.15 K	0.142	250
298.15 K	0.185	182
303.15 K	0.24	136
308.15 K	0.309	102
313.15 K	0.384	79
318.15 K	0.421	62
323.15 K	0.504	48

NCCO + CCCC[n+]1ccn(C)c1.F[P-](F)(F)(F)(F)F
x1 = 1
Conditions	electrical conductivity [S/m]	viscosity [mPa·s]
298.15 K	0.0023	18.6
303.15 K	0.0027	15
308.15 K	0.0032	11.9
313.15 K	0.0036	9.9
323.15 K	0.0069	7

CCCC[n+]1ccn(C)c1.F[P-](F)(F)(F)(F)F + NCCO
Conditions	electrical conductivity [S/m]	viscosity [mPa·s]
288.15 K, x2 = 0	0.105	350
288.15 K, x2 = 0.1185	0.124	220
288.15 K, x2 = 0.2113	0.144	172
288.15 K, x2 = 0.3052	0.165	141
288.15 K, x2 = 0.387	0.177	–
288.15 K, x2 = 0.4282	0.178	107
288.15 K, x2 = 0.4761	0.186	–
288.15 K, x2 = 0.4918	0.186	93
288.15 K, x2 = 0.5352	0.194	–
288.15 K, x2 = 0.5871	0.2	–
288.15 K, x2 = 0.6161	0.197	70
288.15 K, x2 = 0.6533	0.198	–
288.15 K, x2 = 0.6984	0.194	58
288.15 K, x2 = 0.9592	0.0794	–
293.15 K, x2 = 0	0.142	250
293.15 K, x2 = 0.1185	0.167	159
293.15 K, x2 = 0.2113	0.194	125
293.15 K, x2 = 0.4282	0.239	78
293.15 K, x2 = 0.4761	0.251	–
293.15 K, x2 = 0.4918	0.25	68
293.15 K, x2 = 0.6161	0.262	52
293.15 K, x2 = 0.6533	0.264	–
293.15 K, x2 = 0.6984	0.259	44
293.15 K, x2 = 0.8022	0.243	34
293.15 K, x2 = 0.9028	0.178	27
298.15 K, x2 = 0.1185	0.221	117
298.15 K, x2 = 0.387	0.309	–
298.15 K, x2 = 0.4282	0.312	59
298.15 K, x2 = 0.4761	0.329	–
298.15 K, x2 = 0.4918	0.325	52
298.15 K, x2 = 0.5871	0.347	–
298.15 K, x2 = 0.6161	0.34	39
298.15 K, x2 = 0.6533	0.346	–
298.15 K, x2 = 0.6984	0.34	33
298.15 K, x2 = 0.9028	0.226	21.3
298.15 K, x2 = 0.9592	0.131	–
303.15 K, x2 = 0	0.24	136
303.15 K, x2 = 0.1185	0.286	87
303.15 K, x2 = 0.2113	0.33	70
303.15 K, x2 = 0.3052	0.378	58
303.15 K, x2 = 0.387	0.397	–
303.15 K, x2 = 0.4282	0.4	45
303.15 K, x2 = 0.4761	0.424	–
303.15 K, x2 = 0.4918	0.415	39
303.15 K, x2 = 0.5871	0.445	–
303.15 K, x2 = 0.6161	0.432	30
303.15 K, x2 = 0.6533	0.441	–
303.15 K, x2 = 0.8022	0.397	20.8
303.15 K, x2 = 0.9028	0.283	16.9
303.15 K, x2 = 0.9592	0.164	–
308.15 K, x2 = 0	0.309	102
308.15 K, x2 = 0.1185	0.366	67
308.15 K, x2 = 0.2113	0.422	55
308.15 K, x2 = 0.3052	0.486	44
308.15 K, x2 = 0.4918	0.529	30
308.15 K, x2 = 0.5352	0.551	–
308.15 K, x2 = 0.5871	0.565	–
308.15 K, x2 = 0.6161	0.55	23.6
308.15 K, x2 = 0.6533	0.561	–
308.15 K, x2 = 0.6984	0.552	20.2
308.15 K, x2 = 0.8022	0.495	16.3
308.15 K, x2 = 0.9028	0.351	13.5
308.15 K, x2 = 0.9592	0.204	–
313.15 K, x2 = 0	0.384	79
313.15 K, x2 = 0.1185	0.455	53
313.15 K, x2 = 0.2113	0.524	42
313.15 K, x2 = 0.387	0.627	–
313.15 K, x2 = 0.4282	0.635	27
313.15 K, x2 = 0.4918	0.665	24.4
313.15 K, x2 = 0.5871	0.698	–
313.15 K, x2 = 0.6161	0.676	18.8
313.15 K, x2 = 0.6533	0.693	–
313.15 K, x2 = 0.6984	0.675	16.3
313.15 K, x2 = 0.8022	0.607	13.1
313.15 K, x2 = 0.9028	0.426	11
318.15 K, x2 = 0	0.421	62
318.15 K, x2 = 0.1185	0.558	42
318.15 K, x2 = 0.2113	0.641	34
318.15 K, x2 = 0.387	0.766	–
318.15 K, x2 = 0.4761	0.813	–
318.15 K, x2 = 0.5352	0.825	–
318.15 K, x2 = 0.5871	0.846	–
318.15 K, x2 = 0.6161	0.82	15.3
318.15 K, x2 = 0.6533	0.843	–
318.15 K, x2 = 0.6984	0.821	12.8
318.15 K, x2 = 0.8022	0.731	10.8
318.15 K, x2 = 0.9028	0.526	9.1
318.15 K, x2 = 0.9592	0.3	–
323.15 K, x2 = 0.1185	0.665	35
323.15 K, x2 = 0.2113	0.76	28
323.15 K, x2 = 0.387	0.915	–
323.15 K, x2 = 0.4282	0.918	18.3
323.15 K, x2 = 0.4918	0.945	16.1
323.15 K, x2 = 0.5871	1	–
323.15 K, x2 = 0.6161	0.971	12.8
323.15 K, x2 = 0.6533	0.999	–
323.15 K, x2 = 0.6984	0.972	11.1
323.15 K, x2 = 0.8022	0.861	9.1
323.15 K, x2 = 0.9028	0.619	7.7
323.15 K, x2 = 0.9592	0.351	–

CN(C)CCO + CCCC[n+]1ccn(C)c1.F[P-](F)(F)(F)(F)F
Conditions	electrical conductivity [S/m]	viscosity [mPa·s]
288.15 K, x1 = 0.1221	0.12	213
288.15 K, x1 = 0.2143	0.14	159
288.15 K, x1 = 0.4405	–	81
288.15 K, x1 = 0.4637	0.179	–
288.15 K, x1 = 0.605	0.206	46
288.15 K, x1 = 0.9128	0.135	9.5
288.15 K, x1 = 1	0.082	5
293.15 K, x1 = 0.1221	0.161	157
293.15 K, x1 = 0.3182	0.203	88
293.15 K, x1 = 0.3764	0.226	–
293.15 K, x1 = 0.605	0.264	35
293.15 K, x1 = 0.709	0.266	23
293.15 K, x1 = 0.9128	0.16	8
293.15 K, x1 = 1	0.091	4.3
298.15 K, x1 = 0.2143	0.242	88
298.15 K, x1 = 0.3182	0.263	66
298.15 K, x1 = 0.3764	0.285	–
298.15 K, x1 = 0.4405	–	46
298.15 K, x1 = 0.5166	0.322	36
298.15 K, x1 = 0.605	0.333	27
298.15 K, x1 = 0.709	0.332	18.2
298.15 K, x1 = 0.8063	0.297	11.8
303.15 K, x1 = 0.1221	0.272	88
303.15 K, x1 = 0.2143	0.311	68
303.15 K, x1 = 0.3182	0.341	51
303.15 K, x1 = 0.4637	0.389	–
303.15 K, x1 = 0.5166	0.403	28
303.15 K, x1 = 0.605	0.414	21.4
303.15 K, x1 = 0.709	0.404	14.7
303.15 K, x1 = 0.9128	0.218	5.6
303.15 K, x1 = 1	0.11	3.2
308.15 K, x1 = 0.1221	0.348	67
308.15 K, x1 = 0.2143	0.396	52
308.15 K, x1 = 0.3182	0.431	39
308.15 K, x1 = 0.3764	0.461	–
308.15 K, x1 = 0.5166	0.502	22.4
308.15 K, x1 = 0.605	0.51	17
308.15 K, x1 = 0.709	0.49	11.9
308.15 K, x1 = 0.8063	0.423	8
308.15 K, x1 = 0.9128	0.252	4.8
308.15 K, x1 = 1	0.12	2.9
313.15 K, x1 = 0.1221	0.434	53
313.15 K, x1 = 0.2143	0.491	41
313.15 K, x1 = 0.3182	0.531	31
313.15 K, x1 = 0.3764	0.564	–
313.15 K, x1 = 0.4405	–	22.6
313.15 K, x1 = 0.4637	0.589	–
313.15 K, x1 = 0.5166	0.606	18.1
313.15 K, x1 = 0.709	0.583	9.8
313.15 K, x1 = 0.8063	0.494	6.7
313.15 K, x1 = 0.9128	0.288	4.1
313.15 K, x1 = 1	0.131	2.5
318.15 K, x1 = 0.1221	0.531	42
318.15 K, x1 = 0.2143	0.599	33
318.15 K, x1 = 0.3182	0.648	25
318.15 K, x1 = 0.4405	–	18.6
318.15 K, x1 = 0.4637	0.713	–
318.15 K, x1 = 0.5166	0.727	14.9
318.15 K, x1 = 0.605	0.726	11.6
318.15 K, x1 = 0.709	0.682	8.3
318.15 K, x1 = 0.8063	0.571	5.7
318.15 K, x1 = 0.9128	0.326	3.6
318.15 K, x1 = 1	0.141	2.27
323.15 K, x1 = 0.1221	0.63	35
323.15 K, x1 = 0.2143	0.712	28
323.15 K, x1 = 0.3182	0.767	21.2
323.15 K, x1 = 0.4405	–	15.7
323.15 K, x1 = 0.4637	0.834	–
323.15 K, x1 = 0.605	0.841	9.9
323.15 K, x1 = 0.709	0.784	7.1
323.15 K, x1 = 0.8063	0.648	5
323.15 K, x1 = 0.9128	0.363	3.2
